Measurements as given in patent US20260021122A1, “CANNABINOIDS AND USES THEREOF IN TREATMENT OF A DISEASE” (TECHNION RESEARCH & DEVELOPMENT FOUNDATION LIMITED, priority 2022, published 2026).

Key:
CSF-1 [1] = assay: ELISA of secreted CSF-1 in media of B16F10 cells; assay type: cell-based, murine; settings: summary statement of the discussion
Procedure: The media from B16F10 and A375 cell lines, or homogenates from B16F10 tumors, that were treated as indicated for 24 hours, were collected and the protein concentration of MCP-1, MIP-2, C-C Motif Chemokine Ligand 5 (CCL5), and CSF-1 were measured by Quantikine Mouse M-CSF Immunoassay solid-phase ELISA kit (R&D systems, Cat #MMC00) as described in the manufacture's protocol.

CSF-1 [2] = assay: CSF-1 protein levels in B16F10 cells by confocal microscopy and western blot; assay type: cell-based, murine; settings: 1.5 μg/ml CBG or 2 μg/ml 3704, 24 hours, both methods
Procedure: B16F10 cells were seeded on 13 mm coverslips (Bar Naor Ltd., Cat #BN1001-13-1CN) and treated with either synthetic CBG or Cannabis extract 3704 for 24 hours. Then, cells were fixed at room temperature with 4% PFA (Electron Microscopy Sciences, Cat #15710) in PBS (Sartorius, Cat #02-023-1A) for 20 minutes, permeabilized by 0.3% Triton-100× (Sigma, Cat #T8787) in PBS for 10 minutes and Blocked with a solution containing 5% Normal Goat Serum (Abcam, Cat #ab7481), 0.25% Gelatin (Sigma-Aldrich, Cat #G7041) and 0.1% Triton-X100 in PBS for 1 hour. […] Analysis was conducted using the IMARIS software and results were calculated using the formula: mean AF-488 intensity divided by the number of nuclei.
B16F10 cells, and sorted MO-MDSC and PMN-MDSC achieved as described, were lysed in RIPA buffer (Sigma, Cat #R0278) supplemented with Protease/Phosphatase Inhibitor Cocktail (Cell signaling, Cat #5872S) on ice for 20 minutes. Total protein concentrations were measured using the detergent-compatible protein assay (Bio-Rad, Cat #5000113 and 5000114) and equal amounts were loaded onto a 4%-20% gradient gel (Invitrogen, Cat #XPO4202) and semidry transferred into a nitrocellulose membrane (Bio-Rad, Cat #1704159). […]

## CCCCCc1cc(O)c(C/C=C(\C)CCC=C(C)C)c(O)c1 [CBG, cannabigerol]
CSF-1 [1]
  efficiency of CSF-1 secretion reduction, comparison between treatments (discussion): reduce CSF-1 secretion more efficiently than the psychoactive THC
CSF-1 [2]
  CSF-1 protein levels in B16F10 cells: decreased CSF-1 protein levels
